Target: T1, G-protein coupled receptor 30 (GPR30) (Rattus norvegicus, UniProt O08878)
T1 sequence (O08878 1-375): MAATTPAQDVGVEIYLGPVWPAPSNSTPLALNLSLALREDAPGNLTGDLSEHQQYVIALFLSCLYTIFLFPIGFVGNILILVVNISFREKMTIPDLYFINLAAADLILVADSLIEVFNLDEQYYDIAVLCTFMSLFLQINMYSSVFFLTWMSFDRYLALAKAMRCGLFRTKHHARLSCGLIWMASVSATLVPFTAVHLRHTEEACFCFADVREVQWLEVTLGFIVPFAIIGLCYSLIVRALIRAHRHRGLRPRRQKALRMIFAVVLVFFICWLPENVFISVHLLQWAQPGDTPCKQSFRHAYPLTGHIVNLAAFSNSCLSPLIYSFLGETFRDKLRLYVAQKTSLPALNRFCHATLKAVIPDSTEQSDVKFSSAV
Experiment: [3H]2ME2 saturation radioligand binding on WB cell membranes

Molecule COc1cc2c(cc1O)CC[C@@H]1[C@@H]2CC[C@]2(C)[C@@H](O)CC[C@@H]12 [2ME2, 2-methoxyestradiol] has a Kd of roughly 10.1 nM.
